≈ marks a conversion by molar mass, not a printed value. Where two headings read alike, the source gives them in different places.
How the values were obtained:
M. kansasii = assay: Microplate Alamar Blue assay, MIC; format: cell-based, Mycobacterium kansasii; conditions: for MIC: Mycobacterium kansasii, read-out: Antimycobacterial Activity MIC M. kans.
Mtb H37Rv = assay: Microplate Alamar Blue assay, MIC; format: cell-based, Mycobacterium tuberculosis; conditions: for MIC: Mycobacterium tuberculosis, H37RV
M. smegmatis = assay: Microdilution broth resazurin assay, MIC; format: cell-based, Mycolicibacterium smegmatis
Mtb H37Ra = assay: Microdilution broth resazurin assay, MIC; format: cell-based, Mycobacterium tuberculosis
M. aurum = assay: Microdilution broth resazurin assay, MIC; format: cell-based, Mycolicibacterium aurum
HepG2 = conditions: read-out: IC50 for HepG2 [24 h]; 24 h incubation, cytotoxicity
MRC-5 = conditions: read-out: IC50 for MRC-5 [24 h]; 24 h incubation, cytotoxicity
M. avium = assay: Microdilution broth resazurin assay, MIC; format: cell-based, Mycobacterium avium
[1] = Table S5 matching pairs series A and B
[2] = Microplate Alamar Blue assay, read-out: Antimycobacterial Activity MIC Mtb H37Rv
[3] = Mycolicibacterium smegmatis, read-out: Antimycobacterial Activity MIC M. smeg.
[4] = Mycobacterium tuberculosis, H37RA; read-out: Antimycobacterial Activity MIC Mtb H37Ra
[5] = Mycolicibacterium aurum, read-out: Antimycobacterial Activity MIC M. aurum
[6] = Mycobacterium avium; read-out: Antimycobacterial Activity MIC M. avium
[7] = Mycobacterium avium, read-out: Antimycobacterial Activity MIC M. avium
[8] = read-out: Antimycobacterial Activity MIC Mtb H37Rv, Table S5 matching pairs series A and B
[9] = Mycolicibacterium smegmatis; read-out: Antimycobacterial Activity MIC M. smeg.
[10] = Mycobacterium tuberculosis, H37RA, read-out: Antimycobacterial Activity MIC Mtb H37Ra
[11] = Mycolicibacterium aurum; read-out: Antimycobacterial Activity MIC M. aurum

SMILES | Antimycobacterial Activity MIC M. kans. (M. kansasii) [µg/mL] | Antimycobacterial Activity MIC Mtb H37Rv (Mtb H37Rv; Microplate Alamar Blue assay) [µg/mL] | Antimycobacterial Activity MIC M. smeg. (M. smegmatis) [µg/mL] | Antimycobacterial Activity MIC M. smeg. (M. smegmatis; [1]) [µg/mL] | Antimycobacterial Activity MIC Mtb H37Ra (Mtb H37Ra) [µg/mL] | Antimycobacterial Activity MIC M. aurum (M. aurum) [µg/mL] | Antimycobacterial Activity MIC M. aurum (M. aurum; [1]) [µg/mL] | Antimycobacterial Activity MIC M. avium (M. avium) [µg/mL] | Antimycobacterial Activity MIC M. avium (M. avium; [1]) [µg/mL] | MIC (M. kansasii) [µg/mL] | MIC (Mtb H37Rv; [2]) [µg/mL] | MIC (M. smegmatis; [3]) [µg/mL] | MIC (Mtb H37Ra; [4]) [µg/mL] | MIC (M. aurum; [5]) [µg/mL] | MIC (M. avium; [6]) [µg/mL] | MIC (M. avium; [7]) [µg/mL] | also measured
Cc1nc2ccccc2c(=O)n1Cc1cccc(Cl)c1 [Compound 6] | 25 | 50 | 62.5 | 62.5 | 31.25 | 62.5 | 62.5 | 31.25 | 31.25 | – | – | – | – | – | – | – | Antimycobacterial Activity MIC M. kans. (M. kansasii; [1]): 25 µg/mL; Antimycobacterial Activity MIC Mtb H37Rv (Mtb H37Rv; [1]): 50 µg/mL; Antimycobacterial Activity MIC Mtb H37Ra (Mtb H37Ra; [1]): 31.25 µg/mL; IC50 (HepG2): 507 ± 48 µM; IC50 (MRC-5): 551 ± 19 µM
Cc1nc2cc(Cl)ccc2c(=O)n1Cc1cccc(O)c1 [Compound 13] | – | – | – | – | – | – | – | – | – | > 100 | 50 (≈ 166 µM) | ≥ 62.5 | ≥ 62.5 | ≥ 62.5 | 62.5 (≈ 208 µM) | – | –
COc1ccccc1/C=N/n1c(C)nc2cc(Cl)ccc2c1=O [Compound 38] | – | – | – | – | – | – | – | – | – | > 25 | > 25 | ≥ 62.5 | ≥ 62.5 | ≥ 62.5 | – | ≥ 62.5 | –
Cc1nc2cc(Cl)ccc2c(=O)n1/N=C/C=C/c1ccccc1 [Compound 41] | – | – | – | – | – | – | – | – | – | > 25 | > 25 | ≥ 31.2 | ≥ 31.2 | ≥ 31.2 | – | ≥ 31.2 | –
Cc1nc2cc(Cl)ccc2c(=O)n1Cc1ccc(C(F)(F)F)cc1 [Compound 22] | – | – | – | ≥ 500 | 31.25 | – | ≥ 500 | – | ≥ 500 | 25 (≈ 70.9 µM) | > 100 | – | – | – | ≥ 500 | – | Antimycobacterial Activity MIC M. kans. (M. kansasii; [1]): 25 µg/mL; MIC (Mtb H37Rv; [8]): > 100 µg/mL; MIC (M. smegmatis; [9]): ≥ 500 µg/mL; MIC (Mtb H37Ra; [10]): 31.2 µg/mL (≈ 88.6 µM); MIC (M. aurum; [11]): ≥ 500 µg/mL
Cc1nc2cc(Cl)ccc2c(=O)n1/N=C/c1ccccc1Br [Compound 52] | – | – | – | – | – | – | – | – | – | > 25 | > 25 | ≥ 31.2 | ≥ 31.2 | ≥ 31.2 | – | ≥ 31.2 | –
NNC(=O)c1ccncc1 [INH, isoniazid, reference compound] | – | – | – | – | – | – | – | – | – | 25 (≈ 182 µM) | 0.2 (≈ 1.46 µM) | – | 0.25 (≈ 1.82 µM) | – | 1000 (≈ 7290 µM) | – | MIC (M. smegmatis; Mycolicibacterium smegmatis, DSM43465; internal quality controls (standards); read-out: MINIMUM INHIBITORY CONCENTRATION Mycolicibacterium smegmatis DSM 43465): 15.6 to 31.2 µg/mL (≈ 114 to 228 µM); MIC (M. smegmatis; [9]): 15.6 µg/mL (≈ 114 µM); MIC (Mtb H37Ra; Mycobacterium tuberculosis, H37RA; internal quality controls (standards); read-out: MINIMUM INHIBITORY CONCENTRATION Mycobacterium tuberculosis H37Ra): 0.125 to 0.25 µg/mL (≈ 0.911 to 1.82 µM); MIC (M. aurum; Mycolicibacterium aurum, DSM43999; internal quality controls (standards); read-out: MINIMUM INHIBITORY CONCENTRATION Mycolicibacterium aurum DSM 43999): 1.95 to 3.91 µg/mL (≈ 14.2 to 28.5 µM); MIC (M. aurum; [11]): 3.91 µg/mL (≈ 28.5 µM); MIC (M. avium; Mycobacterium avium, DSM44156; internal quality controls (standards); read-out: MINIMUM INHIBITORY CONCENTRATION Mycobacterium avium DSM 44156): 500 to 1000 µg/mL (≈ 3650 to 7290 µM)
COc1ccc(Cn2c(C)nc3cc(Cl)ccc3c2=O)c(OC)c1 [Compound 15] | – | – | ≥125 | – | ≥125 | ≥125 | – | ≥125 | – | > 100 | > 100 | ≥ 125 | – | ≥ 125 | – | ≥ 125 | MIC (Mtb H37Rv; [8]): > 100 µg/mL; MIC (Mtb H37Ra; [10]): ≥ 125 µg/mL
COc1ccc(Cn2c(C)nc3ccccc3c2=O)c(OC)c1 [Compound 1] | >100 | >100 | ≥500 | ≥ 500 | ≥500 | ≥500 | ≥ 500 | ≥500 | ≥ 500 | – | – | – | – | – | – | – | Antimycobacterial Activity MIC Mtb H37Ra (Mtb H37Ra; [1]): ≥ 500 µg/mL
Cc1nc2ccccc2c(=O)n1Cc1ccc(Cl)cc1Cl [Compound 10] | >100 | >100 | ≥250 | – | ≥250 | ≥250 | – | ≥250 | – | – | – | – | – | – | – | – | –

Reference: article PMC12221116, “Novel Quinazolinones Active against Multidrug‐Resistant Mycobacterium Tuberculosis: Synthesis, Antimicrobial Evaluation, and in Silico Exploration of Penicillin‐Binding Protein 1A as a Potential Target” (Chemmedchem, 2025)
